Where a SMILES comes first, the peptide text is derived from it. Bridges are numbered along the chain shown (N, C = ends). [ ]: non-standard residue; d: D form. The star is where a group is joined. Heptanoyl(6-Me) = CC(C)CCCCC(=O)*; dDab = NCC[C@@H](N)C(=O)O; Dab = NCC[C@H](N)C(=O)O
Columns and labels:
P. aeruginosa PA1 = conditions: PA1
E. coli 14084 = conditions: 14084
A. baumannii AB1 = conditions: AB1
K. Pneumoniae 827 = conditions: 827
K. Pneumoniae GMCH12 = conditions: GMCH12
A. baumannii GMCH 14 = conditions: GMCH 14
[1] = tested on: Escherichia coli ATCC 35218; conditions: ATCC 35218
[2] = tested on: Pseudomonas aeruginosa ATCC 27853; conditions: ATCC 27853
E. coli 7932 = conditions: 7932
[3] = tested on: Klebsiella pneumoniae ATCC BAA1706; conditions: ATCC BAA1706
P. aeruginosa PA6 = conditions: PA6
E. coli 7210 = conditions: 7210
K. Pneumoniae GMCH 16 = conditions: GMCH 16
K. Pneumoniae GMCH04 = conditions: GMCH04
E. coli 13425 = conditions: 13425
A. baumannii AB2 = conditions: AB2
E. coli 14504 = conditions: 14504
[4] = tested on: Klebsiella pneumoniae ATCC 700603; conditions: ATCC 700603
P. aeruginosa PA3 = conditions: PA3
P. aeruginosa ATCC 27853 = assay: Time-kill kinetics; format: cell-based; conditions: P. aeruginosa ATCC 27853, 2xMIC
P. aeruginosa PA4 = conditions: PA4
[5] = tested on: Acinetobacter baumannii ATCC 19606; conditions: ATCC 19606
E. coli 9062 = conditions: 9062
K. Pneumoniae GMCH11 = conditions: GMCH11
K. Pneumoniae GMCH10 = conditions: GMCH10
P. aeruginosa PA2 = conditions: PA2
[6] = tested on: Staphylococcus aureus ATCC 25923; conditions: ATCC 25923
K. Pneumoniae B8 = conditions: B8
P. aeruginosa GMCH06 = conditions: GMCH06
E. coli ATCC 25922 = assay: NPN uptake assay, outer membrane permeabilization; format: cell-based; conditions: E. coli ATCC 25922, 10 and 20 μg/ml, 1 h, compared with polymyxin B
A. baumannii GMCH05 = conditions: GMCH05
E. coli 3185 = conditions: 3185
[7] = tested on: Vibrio parahaemolyticus ATCC17802
[8] = tested on: Escherichia coli ATCC 25922; conditions: ATCC 25922
[9] = tested on: human embryonic kidney cell line (HEK293 ATCC CRL-1573); format: cell-based
Protocol: (§1) 3-(4,5-dimethylthiazol-2-yl)-2,5-diphenyltetrazolium bromide (MTT) assay was employed to examine the cytotoxicity against human leukemic monocyte cell line (THP-1 ATCC TIB-202) and human embryonic kidney cell line (HEK293 ATCC CRL-1573) as explained by [Kaur et al. (2017)]. Toxicity of both compounds was compared with polymyxin B and colistin at concentrations ranging from 62.5 to1000 μg/ml.

[10] = tested on: human leukemic monocyte cell line (THP-1 ATCC TIB-202); format: cell-based
Protocol: as §1

K. Pneumoniae GMCH13 = conditions: GMCH13
[11] = tested on: Enterococcus faecalis ATCC 51299; conditions: ATCC 51299
E. coli 7534 = conditions: 7534
E. coli 14363 = conditions: 14363
[12] = tested on: Klebsiella pneumoniae ATCC- BAA 2146; conditions: BAA 2146
[13] = tested on: Bacillus subtilis ATCC 6633; conditions: ATCC 6633
P. aeruginosa PA5 = conditions: PA5
[14] = tested on: clinical MDR isolates (E. coli, K. pneumoniae, A. baumanii, P. aeruginosa); format: cell-based; conditions: in 25 of 31 clinical isolates
K. Pneumoniae 1573 = conditions: 1573
K. Pneumoniae 1428 = conditions: 1428
[15] = tested on: Vibrio cholerae MTCC 3906
[16] = tested on: Klebsiella pneumoniae ATCC 29665; conditions: ATCC 29665
A. baumannii GMCH18 = conditions: GMCH18

CC(C)CCCCC(=O)N[C@@H](CCN)C(=O)N[C@H](C(=O)N[C@H](CCN)C(=O)N[C@H]1CCNC(=O)[C@H]([C@@H](C)O)NC(=O)[C@H](CCN)NC(=O)[C@H](CCN)NC(=O)[C@H]([C@@H](C)O)NC(=O)[C@@H](CC(C)C)NC(=O)[C@H](CCN)NC1=O)[C@@H](C)O [P1, polymyxin A2] ({Heptanoyl(6-Me)}-[Dab]T[dDab][Dab][Dab][dL]T[Dab][Dab]T; lactam 4-C)
> 1000 µg/mL: IC50 [9]
slightly higher NPN uptake: NPN uptake (fluorescence intensity) (E. coli ATCC 25922)
approximately 1000 μg/ml: IC50 [10]
>16 µg/mL: MIC [6] | MIC [11] | MIC [15]
2–4 fold: fold less MIC than the other polymyxins [14]
1 µg/mL: MIC (P. aeruginosa PA1) | MIC (P. aeruginosa PA6) | MIC (A. baumannii AB2) | MIC [4] | MIC (P. aeruginosa PA3) | MIC (P. aeruginosa PA4) | MIC (K. Pneumoniae GMCH11) | MIC (K. Pneumoniae GMCH10) | MIC (P. aeruginosa PA2) | MIC (A. baumannii GMCH05) | MIC [7] | MIC [8] | MIC (P. aeruginosa PA5) | MIC (K. Pneumoniae 1428)
0.25 µg/mL: MIC (E. coli 14084) | MIC [1] | MIC (E. coli 7932) | MIC (E. coli 7210) | MIC (K. Pneumoniae GMCH04) | MIC (E. coli 13425) | MIC (E. coli 14504) | MIC (E. coli 9062) | MIC (E. coli 3185) | MIC (E. coli 7534) | MIC (E. coli 14363) | MIC (A. baumannii GMCH18)
4 h: time to kill (P. aeruginosa ATCC 27853)
0.5 µg/mL: MIC (A. baumannii AB1) | MIC (K. Pneumoniae 827) | MIC (K. Pneumoniae GMCH12) | MIC (A. baumannii GMCH 14) | MIC [2] | MIC [3] | MIC (K. Pneumoniae GMCH 16) | MIC [5] | MIC (K. Pneumoniae B8) | MIC (P. aeruginosa GMCH06) | MIC (K. Pneumoniae GMCH13) | MIC [12] | MIC (K. Pneumoniae 1573) | MIC [16]
16 µg/mL: MIC [13]

— paper PMC6265310, “Purification, Characterization and in vitro Evaluation of Polymyxin A From Paenibacillus dendritiformis: An Underexplored Member of the Polymyxin Family” (Frontiers in Microbiology, 2018)
